Experiments:
PC12-HS cells = assay: Evaluation A: neurocyte (cell)-growth-promoting action, ALAMAR BLUE; assay type: cell-based, rat; details: for Cell survival percentage (%): cell-growth promotion
[1] = system: ICR mice administered with amyloid β fragment; assay: Degeneration or defect of hippocampal pyramidal cells, mouse administered with amyloid β fragment, agents of Example 1; assay type: in vivo; details: 4-point grade score none (0) to severe (3), average of 10 mice; agent of Example 1, 0.3 ml/head intraperitoneally once a day up to the 8th day
Protocol: One hundred and thirty ICR mice (commercialized by Charles Liver Laboratories Japan Inc., Kanagawa, Japan) were randomly divided into 13 groups, consisting of 10 mice in each group. Amyloid β fragment, represented by an amino acid sequence of SEQ ID NO: 1, used in Experiment 3 was aged at 37° C. for four days, and administered to the lateral ventricle of each mouse in an amount of 9 nmol/6 μl/mouse (the administration method is referred to “Brain Research”, Vol. 706, pp. 181-193 (1996)). […] The mice (10 heads) in the remaining one group were intraperitoneally administered with a sterilized 10% maltose solution (pyrogen-free) once a day up to the 8th day in an amount of 0.3 ml/mouse (control). On the 8th day after the administration, novel object recognition test (see, Japanese Patent Kokai No. 2008-193941) was performed and the average discrimination index (the ratio of prolonged seeking time for novel object to the total seeking time) as a cognitive function index were shown in Table 26. On the 9th day after the administration, the brain of the mice was anatomically isolated, prepared into tissue samples in conventional manner. Depositions of aggregation of amyloid fragment were observed by staining with Congo red or thioflavin T, and degeneration or defect of hippocampal pyramidal cells concerned with cognitive function. The degeneration or the defect of hippocampal pyramidal cells was evaluated by 4-point grade score, by regarding the condition of the control without administration of amyloid β fragment as “none (O)”, “slight (1)”, “moderate (2)”, and “sever (3)”, and the average scores of 10 mice are shown in Table 20.

[2] = system: hamsters with cerebellar ataxia; assay: Slant tolerance test in hamsters with cerebellar ataxia; assay type: in vivo, hamster; details: hamster with cerebellar ataxia; agent of Example 1, 0.5 ml/hamster intraperitoneally once a day for 56 days
Excerpt: Since NK-4 was confirmed to have a neurodegenerative inhibitory action in Experiment 1, hamsters with cerebellar ataxia (cerebellar ataxia is called “cerebellar A” and hamsters with cerebellar ataxia are called “hamsters with cerebellar A”, hereinafter) as a suitable model for human neurodegenerative diseases (e.g., spinal cerebellar degeneration) were subjected to examine the influence of NK-4 administration on their behaviors and brain tissues. Twenty-five hamsters with natural mutation (Nna1 inhibition), which are known to lose Purkinje's cells after three-weeks of age and then induce a spontaneous onset of kinetic motor ataxia after seven-weeks of age (see Akita K. et al., “J. Neurogenetics”, Vol. 21, pp. 19-29, 2007), had been fed at Hayashibara Biochemical Laboratories., Inc., Okayama, Japan, were randomly allocated to the test groups 1 to 5, five heads in each group, as shown in Table 2. Prior to the onset of cerebellar A (at three-weeks of age), PBS was started to administer to the hamsters in the test group 1 at a dose of 10 ml/kg/day. Prior to the onset of cerebellar A (at three-weeks of age), NK-4 was started to be administered to the hamsters in the test groups 2 to 4 at a daily dose of 20 μg/kg, 100 μg/kg or 500 μg/kg. “IGF-1, human, a product name of insulin-like growth factor, commercialized by Assaypro LLC, MO, USA. These administered ingredients were intraperitoneally administered daily to hamsters once a day up to 10-weeks of age. The degree of symptom of cerebellar A and the improvement effect on the symptom by NK-4 were evaluated with an index of improvement in motor coordination of hamsters by conducting once a week the later described rotarod test and the slant tolerance test. At the age of 10-weeks, the hamsters were subjected to counting the falling down frequency and extracted their brains, which were then histologically evaluated. In parallel, the concentration of glutamic acid in the bloods and cerebrospinal fluids (CSF) of the hamsters was assayed. As a test group 6, five normal hamsters, with the same age as the hamsters with cerebellar A used in the test groups 1 to 5, were provided and tested similarly as the hamsters with cerebellar A in such a manner of intraperitoneally administering PBS to them at a dose of 10 ml/kg/day once a day up to 10-weeks of age.
Hamsters were placed on a slope-angle-variable-board while keeping their heads upward, followed by determining the angle for allowing the hamsters to keep staying thereupon for five seconds for use as an endurable-slant-slope-angle test (see Rivlin et al., “J. Neurosurg.”, Vol. 47, pp. 577-581, […]). The initial slope angle was set to 25 degrees and increased by 5 degrees step by step. When a tested hamster in a static condition fell down within five seconds, the slope angle was decreased by one degree step by step, followed by judging the angle that allows the hamster to keep static staying for five seconds, measuring the tolerable slant-slope-angle, and averaging the data for five heads in each group.
Similarly as in Experiment 2, 130 hamsters with cerebellar ataxia, born within the same week and 3-weeks of age, were randomly divided into 13 groups, consisting of 10 hamsters, respectively. […] The hamsters (10 heads) in the remaining one group were intraperitoneally administered from their age of 3- to 10-weeks with a sterilized 10% maltose solution (pyrogen-free) in an amount of 0.5 ml/hamster (control) once a day for 56 days At the next day after the end of the administration, body weight of each hamster was weighed, followed by performing rotarod test, slope endurance test, and counting of falling down frequency. The types of compounds applied to each group and the results are in Table 25.

Row | Compound | Action of enhancing cell growth (%) (PC12-HS cells; compound concentration 25 ng/ml) | Action of enhancing cell growth (%) (PC12-HS cells; compound concentration 50 ng/ml) | Action of enhancing cell growth (%) (PC12-HS cells; compound concentration 100 ng/ml) | Action of enhancing cell growth (%) (PC12-HS cells; compound concentration 200 ng/ml) | Degeneration/defluxion of hippocampal pyramidal cell [1] | Endurable-slant-slope-angle (°) [2] | Action of enhancing cell growth (%) (PC12-HS cells; 100 μl/well of 100 ng/ml test solution, 3 days, control = 100) | Cell survival percentage (%) (PC12-HS cells; final concentration 50 ng/ml) | Cell survival percentage (%) (PC12-HS cells; final concentration 200 ng/ml) | Cell survival percentage (%) (PC12-HS cells; final concentration 800 ng/ml) | Cell survival percentage (%) (PC12-HS cells; no compound = 100%, final concentration 12.5 ng/ml) | optimum concentration for exhibiting cell-growth-promoting action (PC12-HS cells; from Table 9)
1 | CCCCCCCCN1C=CC(=CC=C(C=Cc2cc[n+](CCCCCCCC)c3ccccc23)c2cc[n+](CCCCCCCC)c3ccccc23)c2ccccc21.[I-].[I-] [NK-147] | 122 ± 14% | 136 ± 30% | 163 ± 60% | 404 ± 76% | 1.5 | 49.3 ± 2.1 ° |  |  |  |  |  | 
2 | CCCCCCCCCN1C(C)=CS\C1=C/C=C(\C=C\c1scc(C)[n+]1CCCCCCCCC)c1scc(C)[n+]1CCCCCCCCC.[I-].[I-] [NK-393] |  |  |  |  | 1.1 | 53.1 ± 1.5 ° | 550% |  |  |  |  | 
3 | CC[n+]1ccccc1/C=C/c1ccc(N(C)C)cc1 [NK-557] |  |  |  |  | 2.1 | 45.1 ± 3.7 ° |  | 110 ± 6% | 241 ± 48% | 184 ± 42% | 97 ± 25% | 200 ng/mL

— patent US20120035187A1 (priority 2009, published 2012)
